Where two headings read alike, the source gives them in different places.
Assay: Pharmacokinetic study of LPNF-CBD formulations in freely moving rat model
Assay type: in vivo
Conditions: CBD 15 mg/kg; for half-life: read-out: Elimination half-life (converted)
Description: For pharmacokinetic analysis of LPNF-CBD powders, male Wistar rats were tested in […] groups: a control group received LPNF-CBD prepared as in EXAMPLE 2 (N=5) with CBD concentration 2 mg/mL, administered by oral gavage; experimental groups received LPNF-CBD Polypore or Neusilin US2 powders dispersed in water (N=4 and N=5, respectively) with LPNF-CBD concentration of 20 mg/ml, administered by oral gavage; control groups received CBD in propylene glycol:ethanol:water (4.5:4.5:1 v/v) with CBD concentration of 3 mg/mL, administered by oral gavage or intravenously (N=5 and N=3, respectively). In all groups, the administered CBD dose was 15 mg/kg. For pharmacokinetic (PK) studies, blood samples (0.35 mL) were taken at 0, 0.3 h, 0.6 h, 1 h, 1.5 h, 2 h, 3 h, 4 h and 6 h time points. Plasma was separated by centrifugation and stored frozen until LCMS analysis.
PK study was conducted in the freely moving rat model (in-vivo) in five groups of animals receiving: (1) CBD in propylene glycol:ethanol:water solution; (2) LPNF-CBD, (3) LPNF-CBD Polypore and (4) LPNF-CBD Neusilin powders dispersed in water; all administered by oral gavage; and (5) CBD in propylene glycol:ethanol:water solution administered IV.

[1] = male, Wistar, in vivo, oral gavage

C=C(C)[C@@H]1CCC(C)=C[C@H]1c1c(O)cc(CCCCC)cc1O [CBD, Cannabidiol]
Liner terminal slope (IV): 0.2 h⁻¹ | half-life (male, Wistar, in vivo, IV): 4.1 h | AUC [1]: 158 ng·h/mL | half-life [1]: 3.2 h | Liner terminal slope (oral gavage): 0.2 h⁻¹
